According to the supplement of paper PMC13380429:

Legend:
Details in all cases: 72 h
Caco-2 [1] = experiment: relative viability EC50 (midpoint between 100% and the lowest measured viability); higher = less toxic
Vero E6 [2] = experiment: as above
HepG2 [3] = experiment: as above
U2OS [4] = experiment: as above
Calu-3 [5] = experiment: as above
Caco-2 [6] = experiment: drug sensitivity score (DSS) for viability; higher = more toxic; extreme values may be limits of the assay
Vero E6 [7] = experiment: as above
HepG2 [8] = experiment: as above
U2OS [9] = experiment: as above
Calu-3 [10] = experiment: as above
Caco-2 [11] = experiment: cell viability relative to DMSO; higher = less toxic
Vero E6 [12] = experiment: as above
HepG2 [13] = experiment: as above
U2OS [14] = experiment: as above
Calu-3 [15] = experiment: as above

Row | SMILES | relative viability EC50 (Caco-2 [1]) | relative viability EC50 (Vero E6 [2]) | relative viability EC50 (HepG2 [3]) | relative viability EC50 (U2OS [4]) | relative viability EC50 (Calu-3 [5]) | drug sensitivity score (Caco-2 [6]) | drug sensitivity score (Vero E6 [7]) | drug sensitivity score (HepG2 [8]) | drug sensitivity score (U2OS [9]) | drug sensitivity score (Calu-3 [10]) | cell viability (Caco-2 [11]; 1 nM) | cell viability (Caco-2 [11]; 10 nM) | cell viability (Caco-2 [11]; 100 nM) | cell viability (Caco-2 [11]; 1000 nM) | cell viability (Caco-2 [11]; 10000 nM) | cell viability (Vero E6 [12]; 1 nM) | cell viability (Vero E6 [12]; 10 nM) | cell viability (Vero E6 [12]; 100 nM) | cell viability (Vero E6 [12]; 1000 nM) | cell viability (Vero E6 [12]; 10000 nM) | cell viability (HepG2 [13]; 1 nM) | cell viability (HepG2 [13]; 10 nM) | cell viability (HepG2 [13]; 100 nM) | cell viability (HepG2 [13]; 1000 nM) | cell viability (HepG2 [13]; 10000 nM) | cell viability (U2OS [14]; 1 nM) | cell viability (U2OS [14]; 10 nM) | cell viability (U2OS [14]; 100 nM) | cell viability (U2OS [14]; 1000 nM) | cell viability (U2OS [14]; 10000 nM) | cell viability (Calu-3 [15]; 1 nM) | cell viability (Calu-3 [15]; 10 nM) | cell viability (Calu-3 [15]; 100 nM) | cell viability (Calu-3 [15]; 1000 nM) | cell viability (Calu-3 [15]; 10000 nM)
1 | CC(C)c1cccc2c1OC(C(C)C)C(=S)N2CC(=O)O (configuration not stated) [AD-5467] | > 10 µM | > 10 µM | > 10 µM | > 10 µM | > 10 µM | 0 | 0 | 0 | 0 | 0 | 91.3% | 96.9% | 91.2% | 91.9% | 96.4% | 95.7% | 102% | 93.5% | 99.3% | 95.1% | 93.6% | 97.2% | 98.5% | 98% | 96.6% | 102% | 98.5% | 98.9% | 96.5% | 98% | 104% | 106% | 92% | 91.1% | 107%
2 | CC(C)Oc1ccc2c(=O)c3cc(C(=O)O)ccc3oc2c1 [AH6809] | > 10 µM | > 10 µM | > 10 µM | > 10 µM | > 10 µM | 0.3 | 0 | 0 | 0 | 0 | 97.6% | 100% | 93.2% | 93.6% | 85.2% | 96.5% | 102% | 95.3% | 89.8% | 98.9% | 96.6% | 97.1% | 91.5% | 93.6% | 94.5% | 104% | 105% | 107% | 102% | 95% | 112% | 111% | 96.9% | 103% | 104%
3 | CN(CC[C@@H](Oc1ccc(-c2ccccc2)cc1)c1ccc(F)cc1)CC(=O)O [ALX-5407] | > 10 µM | > 10 µM | > 10 µM | > 10 µM | > 10 µM | 0 | 0 | 0 | 0 | 0 | 105% | 98.9% | 102% | 94.8% | 95.6% | 101% | 99.1% | 97.7% | 100% | 96.4% | 102% | 108% | 92.7% | 95.7% | 96.7% | 98.3% | 96.6% | 99% | 93.8% | 98.7% | 103% | 85.9% | 98.6% | 98.3% | 104%
4 | Cc1cc(C(=O)NOCCO)c(Nc2ccc(I)cc2F)n(C)c1=O [AZD8330] |  | 0.0072 µM | 0.0026 µM | 0.265 µM | 0.0118 µM | 12 | 19.2 | 35 | 13.3 | 24.3 | 86.1% | 83.3% | 70% | 62.1% | 66.3% | 89.5% | 72.1% | 52% | 47.7% | 49.2% | 78.2% | 34% | 24% | 20.1% | 18.4% | 93.1% | 94% | 86.2% | 37.3% | 28.3% | 78.8% | 69.5% | 44% | 29.3% | 25.7%
5 | O=C(O)c1cc(N2N=C(C(F)(F)F)/C(=C/c3ccc(-c4ccccc4)o3)C2=O)ccc1Cl [EN460] | > 10 µM |  | > 10 µM | > 10 µM | > 10 µM | 0 |  | 0 | 0 | 0 | 101% | 95.2% | 101% | 97.8% | 96.3% |  |  |  |  |  | 106% | 97.9% | 101% | 105% | 92.1% | 101% | 102% | 97.9% | 98.6% | 100% | 102% | 89.9% | 97.6% | 92.6% | 100%
6 | O=C(c1ccc(F)cc1)C1CCN(CCn2c(=S)[nH]c3ccccc3c2=O)CC1 [altanserin] | > 10 µM |  | > 10 µM | > 10 µM | > 10 µM | 0.2 |  | 1.7 | 0 | 0 | 103% | 82.7% | 94.2% | 89% | 90.6% |  |  |  |  |  | 108% | 107% | 88.2% | 96% | 86.4% | 98.2% | 96.7% | 103% | 96.5% | 97.1% | 104% | 103% | 112% | 97.3% | 111%
7 | c1ccc(CN(CC2=NCCN2)c2ccccc2)cc1 [antazoline] |  | > 10 µM | > 10 µM | > 10 µM | > 10 µM | 3.4 | 0 | 0 | 0 | 0 | 103% | 84.4% | 92.1% | 84% | 70.7% | 99.1% | 102% | 105% | 90.4% | 91.7% | 102% | 91.8% | 90.6% | 96.7% | 103% | 96.5% | 101% | 93.9% | 95% | 90.6% | 90.2% | 105% | 98.3% | 104% | 91.7%
8 | O=C1CCc2ccc(OCCCCN3CCN(c4cccc(Cl)c4Cl)CC3)cc2N1 [aripiprazole] |  | > 10 µM | > 10 µM | > 10 µM | > 10 µM | 2.3 | 0 | 0.8 | 0 | 1.1 | 112% | 78% | 94.6% | 90.5% | 70.8% | 94.1% | 97.6% | 93.7% | 96.3% | 88.2% | 109% | 105% | 98.6% | 100% | 77.5% | 102% | 103% | 103% | 103% | 89.2% | 98.5% | 98.5% | 104% | 91.9% | 83.3%
9 | O=c1cc(-c2ccccc2)oc2cc(O)c(O)c(O)c12 [baicalein] | > 10 µM | > 10 µM | > 10 µM |  | > 10 µM | 0.9 | 0 | 0 | 2.6 | 0 | 96.2% | 99.7% | 96.9% | 99.2% | 77.1% | 91.4% | 98.3% | 93.1% | 97% | 104% | 92.1% | 102% | 90.8% | 101% | 104% | 99.9% | 97.5% | 101% | 95.2% | 62.6% | 105% | 101% | 103% | 103% | 87.5%
10 | CCCCCCCCCCCCCCCC(=O)OC[C@H](COP(=O)([O-])OCC[N+](C)(C)C)OC(=O)CCCCCCCCCCCCCCC [colfosceril-palmitate] |  | > 10 µM | > 10 µM | > 10 µM | > 10 µM | 1.9 | 0 | 0 | 0 | 0.2 | 115% | 113% | 101% | 95.7% | 71.7% | 102% | 97.3% | 96.7% | 95.6% | 95.6% | 97.5% | 108% | 93.3% | 101% | 99.7% | 102% | 103% | 94.8% | 101% | 95.9% | 100% | 103% | 98.1% | 99.2% | 86.9%
11 | CN1CCC[C@@H]1Cc1c[nH]c2ccc(CCS(=O)(=O)c3ccccc3)cc12 [eletriptan] | > 10 µM |  | > 10 µM | > 10 µM | > 10 µM | 0 |  | 0 | 0 | 0.1 | 96.5% | 98% | 104% | 105% | 96.1% |  |  |  |  |  | 103% | 99.6% | 96.7% | 95.6% | 97% | 98.6% | 104% | 94.6% | 104% | 96.3% | 88.5% | 102% | 97.8% | 95.2% | 87.3%
12 | C#C[C@]1(O)CC[C@H]2[C@@H]3CCc4cc(OC)ccc4[C@H]3CC[C@@]21C [mestranol] | > 10 µM |  | > 10 µM | > 10 µM | > 10 µM | 0.4 |  | 0 | 0 | 0 | 96.8% | 106% | 102% | 100% | 82.7% |  |  |  |  |  | 113% | 104% | 107% | 103% | 97.5% | 102% | 98.6% | 96.7% | 101% | 96.1% | 89.6% | 102% | 108% | 104% | 103%
13 | O=C(c1ccccn1)c1cnn2c(-c3ccncc3)ccnc12 [ocinaplon] |  | > 10 µM | > 10 µM | > 10 µM | > 10 µM |  | 0 | 0 | 0 | 0 |  |  |  |  |  | 104% | 99.2% | 100% | 102% | 102% | 108% | 98.7% | 107% | 93.5% | 95.1% | 94% | 103% | 99.2% | 102% | 99.2% | 98.7% | 93.6% | 104% | 95.7% | 107%
14 | Cn1c(=O)c2[nH]c(Br)nc2n(C)c1=O [pamabrom] | > 10 µM |  | > 10 µM | > 10 µM | > 10 µM | 0 |  | 0 | 0 | 0 | 90.3% | 103% | 91% | 109% | 101% |  |  |  |  |  | 100% | 94.8% | 92.9% | 89.7% | 112% | 98.6% | 99.8% | 97.9% | 102% | 96.4% | 105% | 99.3% | 100% | 103% | 105%
15 | COc1cc2ncc(-c3ccccc3)nc2cc1OC [tyrphostin-AG-1296] | > 10 µM | > 10 µM | > 10 µM |  | > 10 µM | 0 | 0 | 0 |  | 0 | 92.7% | 104% | 91.6% | 96.2% | 95.4% | 95.4% | 99.8% | 96.3% | 98% | 99.5% | 107% | 108% | 98.1% | 106% | 95.8% |  |  |  |  |  | 102% | 86.2% | 91.3% | 84.8% | 100%
16 | C[C@]1(c2nc3c(C(N)=O)cccc3[nH]2)CCCN1 [veliparib] |  |  | > 10 µM | > 10 µM | > 10 µM |  |  | 0 | 0 | 0 |  |  |  |  |  |  |  |  |  |  | 105% | 107% | 106% | 96.1% | 101% | 96.7% | 104% | 96.8% | 106% | 96.6% | 105% | 100% | 100% | 111% | 92.1%
